The record followed here is patent US20120252820A1, “METHODS OF TREATING FUNGAL INFECTIONS” (NORTHEASTERN UNIVERSITY, priority 2008, published 2012).

In experiment [1] the test system is C. albicans 3153A biofilms. The experiment is described as follows: Biofilm killing by antifungals, CFU determination. To be noted: for killing curve of biofilm: dose-dependent, 24 hrs challenge. Format: cell-based, Candida albicans. The method, then: (§1) Biofilms of C. albicans 3153A cells were cultured in wells of microtiter plates in RPMI medium for 48 hrs (Ramage et al., Antimicrob. Agents Chemother. 45:2475-2479 (2001)), washed twice in PBS, pH 7.4, to remove nonadherent cells, and resuspended in 100 μl RPMI growth medium containing antifungals. After 24 hrs of antifungal challenge, the biofilms and cultures were washed twice, resuspended in 100 μl PBS, scraped, transferred into eppendorf tubes, vortexed and plated for colony forming unit (CFU) determination on YPD medium. […] This could lead to an underestimation of surviving cells by a factor of ≦10. In parallel, exponentially growing and stationary planktonic cultures were grown for 48 hrs in RPMI medium, and then antifungals were added for 24 hrs. The experiment was performed in triplicate and error bars indicate standard deviation (see FIGS. 1A-1B).
Biofilms were grown in microtiter plates and were treated with amphotericin B or chlorhexidine (100 μg/ml) for 24 hrs, after which they were washed and vortexed, as discussed above. The cells were then reinoculated into microtiter plates to form new biofilms. The new biofilms, derived from persisters that survived drug treatment, were again treated with the antifungal agents (as discussed above), and the procedure was repeated a total of 3 times. Biofilms were sampled for CFU determination before and after antifungal treatment. The experiment was performed in triplicate.
Tests were also performed to determine if yeast persisters were multidrug tolerant. Mature, 48 hr biofilms of C. albicans were challenged for 24 hrs with 100 μg/ml amphotericin B, 100 μg/ml chlorhexidine, or a combination of these two antifungal agents, using the same procedures discussed above. Biofilms were washed and sampled for CFU determination before and after antifungal treatment, as discussed above.

Another experiment deals with C. albicans. The experiment is described as follows: MIC. The experiment is classed as cell-based. The settings on record: Candida albicans.
Experiment [2] has as its system C. albicans 3153A planktonic cultures. As to the kind of experiment: Killing of exponentially growing and stationary planktonic cultures, CFU determination. The experiment is classed as cell-based, Candida albicans. The settings on record: planktonic cultures in RPMI, antifungal 24 hrs. The method, then: as §1
The subject of experiment [3] is Biofilm-Deficient Strains of C. albicans. The experiment is described as follows: Persister formation by biofilm-deficient strains (survival to high levels of amphotericin B). The experiment is classed as cell-based, Candida albicans. On the procedure:
as §1
Given that persisters appeared only in the biofilm, their formation was dependent on the same genes/pathways that determine biofilm development. A large panel of biofilm-defective mutants was therefore tested for their ability to produce persisters by measuring survival to high levels of amphotericin B. These mutants were able to adhere to the surface of a microtiter plate, making it possible to assay in the biofilm survival protocol described above. All strains appeared to produce essentially normal levels of persisters (Table 1).

Structures are written as SMILES. ≈ marks a conversion by molar mass, not a printed value.

With `CC[C@H](C)C[C@H](C)CCCCCCCCC(=O)N[C@H]1C[C@@H](O)[C@@H](NCCN)NC(=O)[C@@H]2[C@@H](O)CCN2C(=O)[C@H]([C@H](O)CCN)NC(=O)[C@H]([C@H](O)[C@@H](O)c2ccc(O)cc2)NC(=O)[C@@H]2C[C@@H](O)CN2C(=O)[C@H]([C@@H](C)O)NC1=O` [Caspofungin, caspofungin], in experiment [1] (C. albicans 3153A biofilms, 24 hrs antifungal challenge, CFU), the killing of biofilms was ≤ 10 fold.

The term MIC denotes the lowest concentration that inhibits growth of the organism. Read a high MIC as weaker potency. In the experiment with C. albicans, `[H]/N=C(\N/C(=N/[H])NCCCCCCNC(=N)NC(=N)Nc1ccc(Cl)cc1)Nc1ccc(Cl)cc1` [chlorhexidine] showed a minimum inhibitory concentration (MIC) of 4 µg/mL (≈ 7.91 µM). Moreover, in experiment [1] (biofilm, 24 hrs), the “concentration above which killing of persisters was observed” value is recorded as “above 100 μg/ml” and the “concentration at which the biofilm was completely sterilized” value amounted to 1000 µg/mL. Further, the “killing curve of biofilm” value in experiment [1] (CFU) is “biphasic killing”. Besides, the “killing of exponentially growing and stationary cells” value in experiment [2] is “eliminated”.

Turning to `C[C@@H]1[C@H](O)[C@@H](C)/C=C/C=C/C=C/C=C/C=C/C=C/C=C/[C@H](O[C@@H]2O[C@H](C)[C@@H](O)[C@H](N)[C@@H]2O)C[C@@H]2O[C@](O)(C[C@@H](O)C[C@@H](O)[C@H](O)CC[C@@H](O)C[C@@H](O)CC(=O)O[C@H]1C)C[C@H](O)[C@H]2C(=O)O` [amphotericin B], the “cells invulnerable (persisters) in biofilm” value in experiment [1] (biofilm, higher concentrations of the drug, 24 hrs) is on record as “More than 1%”. In addition, in experiment [1] (CFU), the “killing curve of biofilm” value is on record as “biphasic killing”. Besides, the Persisters entry is listed as “+++^1 (+++ indicates 1-2% survival)” in experiment [3] (strain 3153A, control wild type); “+^3 (+ indicates 0.05-0.1% survival)” in experiment [3] (strain CAI4); “++ (++ indicates 0.1-1% survival)” in experiment [3] (strain CJN698 (bcr1 with BCR1)); “++ (++ indicates 0.1-1% survival)” in experiment [3] (strain CJN702 (bcr1)); “+++ (+++ indicates 1-2% survival)” in experiment [3] (strain CKY136 (efg1)); “++ (++ indicates 0.1-1% survival)” in experiment [3] (strain CKY138 (efg1 cph1Δ)). For the same compound, the Persisters entry is reported as “++^2 (++ indicates 0.1-1% survival)” in experiment [3] (strain CKY357 (mkc1Δ)); “++ (++ indicates 0.1-1% survival)” in experiment [3] (strain DAY185); “++ (++ indicates 0.1-1% survival)” in experiment [3] (strain DAY286); “++ (++ indicates 0.1-1% survival)” in experiment [3] (strain GKO9 (mds3)); “++ (++ indicates 0.1-1% survival)” in experiment [3] (strain GKO443 (suv3)); “++ (++ indicates 0.1-1% survival)” in experiment [3] (strain GKO798 (kem1)). Besides, the Persisters entry in experiment [3] (strain GKO814 (nup85)) is reported as “++ (++ indicates 0.1-1% survival)”; in experiment [3] (strain MC191 (flo8/flo8)), “+++ (+++ indicates 1-2% survival)”; in experiment [3] (strain MC195 (flo8 with FLO8-2)) it was “+ (+ indicates 0.05-0.1% survival)”; in experiment [3] (strain MC245 (flo8/FLO8)) it was “++ (++ indicates 0.1-1% survival)”. The “killing of exponentially growing and stationary cells” value in experiment [2] was “effectively killed”.
